Test results: patent US8563754B2, “Compounds, compositions and methods for preventing skin darkening” (priority 2010, dated 2013)
Like-named read-outs stand apart in the source and are kept apart here.

Tested on: cultured murine melanocytes (melan-a)
Assay: Melanin assay in cultured murine melanocytes (melan-a)
Assay type: cell-based
Conditions: for activity at 1 µM / activity at 5 µM: Mus musculus; for activity at 1 µM: read-out: % of control melanin remaining after treatment @ 1 μM; for activity at 5 µM: read-out: % of control melanin remaining after treatment @ 5 μM; for ability to block melanin accumulation: cells treated with 1 and 5 uM test compound versus carrier (DMSO) only
Protocol: The Spectrum Collection library consisting of 2000 drug compounds or natural products represents a source for the identification of compounds useful in the present invention. The library may be screened to identify novel pigmentation inhibitors in cultured murine melanocytes (melan-a). Compounds are dissolved in dimethylsulfoxide (DMSO) to a final concentration of 10 mM. Screening is performed with cultured melanocytes in 24-well plates followed by melanin assay (see below). A minimum change of 50% in melanin formation is established as significant for a pigmentation inhibitor. DMSO may be used as a negative control and the widely used depigmenting agent, hydroquinone, may be used as a positive control on every plate. Primary screening is performed at a final concentration of 1 μM and potential candidates from the primary screening are reconfirmed in duplicate at final concentrations of 1 and 5 μM.
Melan-a cells are plated at 5×10^4 cells per well in 1 ml of culture media in 24-well plates the day before adding the library compounds. All compounds are added at the indicated final concentrations. Cells are harvested after 72 hours of incubation, and the melanin assay is performed.
For the primary and secondary screening, cells were harvested and dissolved in 200 μl of 2N NaOH in 20% DMSO at 70° C. A 180-μl aliquot of the resulting solution was measured for absorbance at 490 nm.
A series of structurally related compounds was then tested in this screen, to identify compounds that inhibit skin darkening.

[1] = 1 μM test compound, melan-a cells, 72 hours incubation, control = DMSO carrier, absorbance at 490 nm
[2] = 5 μM test compound, melan-a cells, 72 hours incubation, control = DMSO carrier, absorbance at 490 nm

Row | Compound | activity at 1 µM [1] [%] | activity at 5 µM [2] [%] | further results
1 | CCOP(=S)(OCC)Oc1ccc2c(C)c(Cl)c(=O)oc2c1 [Compound 19, COUMOPHOS] | 81 | 48 | ability to block melanin accumulation: robust dose dependent ability to block melanin accumulation
2 | COc1ccc2c(C)cc(=O)oc2c1 [Compound 17, HYMECROMONE METHYL ETHER] | 96 | 93 | 
3 | COc1c(OC)c2occc2c2oc(=O)ccc12 [Compound 14, PIMPINELLIN] | 76 | 109 | 
4 | DERRUSNIN [Compound 36] |  |  | % of control melanin remaining after treatment @ 1 μM [1]: 81 % of control; % of control melanin remaining after treatment @ 5 μM [2]: 87 % of control
5 | COc1cc2ccc(=O)oc2c2ccoc12 [Compound 12, SPHONDIN] | 89 | 101 | 
6 | COc1cc2c(cc1-c1cc3cc4ccoc4cc3oc1=O)OCO2 [Compound 7, PACHYRRHIZIN] |  |  | activity at 1 µM (Melan-a, 72 h): 75%; activity at 5 µM (Melan-a, 72 h): 71%; ability to block melanin accumulation: robust dose dependent ability to block melanin accumulation
7 | C=C(C)[C@H]1COc2cc3oc(=O)ccc3cc2O1 [Compound 2, OBLIQUIN] | 84 | 95 | 
8 | CC(C)=CCOc1cc2oc(=O)ccc2cc1O [Compound 1, PRENYLETIN] | 79 | 80 | 
9 | COc1cc2occc2c2oc(=O)ccc12 [Compound 15, ISOBERGAPTENE] | 86 | 108 | 
10 | CO[C@@H]1[C@@H](OC(N)=O)[C@@H](O)[C@H](Oc2ccc3c(O)c(NC(=O)c4ccc(O)c(CC=C(C)C)c4)c(=O)oc3c2C)OC1(C)C [Compound 21, NOVOBIOCIN SODIUM, reference compound] | 90 | 94 | 
11 | COc1c2ccoc2cc2oc(=O)ccc12 [Compound 18, BERGAPTENE] | 100 | 93 | 
12 | Cc1cc(=O)oc2cc(O)c(O)cc12 [Compound 24, 4-METHYLESCULETIN] | 88 | 100 | 
13 | COc1ccc(-c2c(O)c3c(OC)c4c(cc3oc2=O)OC(C)(C)C=C4)cc1 [Compound 10, ROBUSTIC ACID] | 91 | 93 | 
14 | COc1ccc2ccc(=O)oc2c1 [Compound 8, HERNIARIN] | 84 | 81 | 
15 | COc1c(CC=C(C)C)c2c(c3oc(=O)c(-c4ccc(O)cc4)c(O)c13)C=CC(C)(C)O2 [Compound 16, SCANDENIN] | 90 | 64 | ability to block melanin accumulation: robust dose dependent ability to block melanin accumulation
16 | CC(C)C1COc2cc3oc(=O)ccc3cc2O1 (stereo not shown) [Compound 3, DIHYDRO-OBLIQUIN] | 81 | 81 | 
17 | CC1(C)C=Cc2cc3ccc(=O)oc3cc2O1 [Compound 5, XANTHYLETIN] | 99 | 110 | 
18 | COc1c2c(c(CC=C(C)C)c3oc(=O)c(-c4ccc(O)cc4)c(O)c13)OC(C)(C)C=C2 [Compound 35, LO[…]] | 84 | 81 | 
19 | CC(C)=CCOc1c2occc2cc2ccc(=O)oc12 [Compound 6, IMPERATORIN] | 91 | 96 | 
20 | Cc1cc2cc3c(C)cc(=O)oc3c(C)c2o1 [Compound 22, TRIOXSALEN, reference compound] | 90 | 118 | 

Row | Compound | activity at 1 µM [1] [%] | activity at 5 µM [2] [%] | further results
21 | CC1(C)Oc2ccc3ccc(=O)oc3c2CC1O (stereo not shown) [Compound 27, LOMATIN] | 89 | 85 | 
22 | CC(=O)O[C@@H]1c2c(ccc3ccc(=O)oc23)OC(C)(C)[C@@H]1OC(=O)CC(C)C [Compound 30, DIHYDROSAMIDIN] | 106 | 88 | 
23 | COc1cc2ccc(=O)oc2cc1O [Compound 38, SCOPOLETIN] | 77 | 83 | 
24 | COc1c(C(C)C)oc2cc3oc(=O)ccc3cc12 [Compound 34, PEUCEDANIN] | 83 | 84 | 
25 | C/C=C(/C)C(=O)O[C@@H]1Cc2c(ccc3ccc(=O)oc23)OC1(C)C [Compound 28, SELINIDIN] | 85 | 82 | 
26 | FELAMIDIN [Compound 40] |  |  | % of control melanin remaining after treatment @ 1 μM [1]: 97 % of control; % of control melanin remaining after treatment @ 5 μM [2]: 88 % of control
27 | COc1cc2ccc(=O)oc2c(OC)c1OC [Compound 4, FRAXIDIN METHYL ETHER] | 87 | 95 | 
28 | CC(=O)OC(C)(C)[C@@H]1Cc2cc3ccc(=O)oc3cc2O1 [Compound 32, MARMESIN ACETATE] | 77 | 92 | 
29 | CC(C)(O)[C@@H]1Cc2cc3ccc(=O)oc3cc2O1 [Compound 31, MARMESIN] | 89 | 97 | 
30 | COc1c2occc2cc2ccc(=O)oc12 [Compound 20, METHOXSALEN, reference compound] | 120 | 125 | 
31 | COc1cc2ccc(=O)oc2c(O)c1O [Compound 39, FRAXETIN] | 84 | 89 | 
32 | COc1c2ccoc2c(OC)c2oc(=O)ccc12 [Compound 13, ISOPIMPINELLIN] | 86 | 95 | 
33 | C/C=C(\C)C(=O)O[C@@H]1c2c(ccc3ccc(=O)oc23)OC(C)(C)[C@@H]1OC(C)=O [Compound 29, PTERYXIN] | 93 | 101 | 
34 | Cc1cc(=O)oc2c(O)c(O)ccc12 [Compound 37, 4- METHYLDAPHNETIN] | 83 | 88 | 
35 | O=c1ccc2cc(O)c(O)cc2o1 [Compound 25, ESCULETIN] | 87 | 88 | 
36 | COc1ccc(-c2c(OC)c3c(OC)c4c(cc3oc2=O)OC(C)(C)C=C4)cc1 [Compound 9, ROBUSTIC ACID METHYL ETHER] | 69 | 16 | ability to block melanin accumulation: robust dose dependent ability to block melanin accumulation
37 | O=c1ccc2cc(O[C@@H]3O[C@H](CO)[C@@H](O)[C@H](O)[C@H]3O)c(O)cc2o1 [Compound 26, AESCULIN] | 70 | 84 | 
38 | COc1cc(OC)c2ccc(=O)oc2c1 [Compound 23, CITROPTEN] | 86 | 97 | 
39 | COc1c(O)cc2c(-c3ccccc3)cc(=O)oc2c1OC [Compound 11, KUHLMANNIN] | 81 | 84 | 
